Test results published in patent publication US20190225650A1, “PEPTIDOMIMETIC MACROCYCLES AND USE THEREOF IN REGULATING HIF1ALPHA” (AILERON THERAPEUTICS, INC., priority 2013, published 2019).
Bridge positions count the residues as written; N and C are the ends. Square brackets hold non-standard residues; d marks the D form. Peptide text beside a SMILES is read from it. R8 = C=CCCCCCC[C@@](C)(N)C(=O)O; S5 = C=CCCC[C@](C)(N)C(=O)O; Nle = CCCC[C@H](N)C(=O)O

How the values were obtained:
[1] = system: HRE-bla ME-180 cells; experiment: Reporter gene assay (HRE-bla ME-180 HIF reporter, GeneBLAzer); type: cell-based, human; settings: for EC50: 24 hour normoxia
Procedure, shortened: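 A FRET β-lactamase readout of HIF transcription was used. After compound treatment in 0.3% DMSO/media under normoxic conditions, 20 μl of 6× LiveBLAzer-FRET B/G (CCF4-AM) substrate was added. Plates sat 3 hr at room temperature in the dark and were read at 409 Ex/460Em and 409Ex/530Em on a Synergy 2. Inhibition was compared against DMSO vehicle controls, with chetomin as positive control.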

[2] = system: HRE-bla ME-180 cells; experiment: Cell proliferation assay (viability, MTT, 1% FBS); type: cell-based, human
Procedure, shortened: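 ME-180 cells (2×10^4/well) in Opti-MEM with 1% FBS were pretreated 16 h under normoxia (21% O2), vehicle 0.5% DMSO final. Incubation then continued under normoxia or hypoxia (1% O2); viable cells quantified by MTT-type CellTiter 96 assay.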

[3] = target: T1, flag-tagged HIF1α (AA 786-826) / His6-tagged p300 (AA 323-423) complex (Homo sapiens, UniProt Q09472); experiment: HIF1α p300 displacement assay (TR FRET, +CHAPS); type: binding; settings: read-out: IC50 (nM) (HIF1α_p300 Displacement + CHAPS)
T1 construct: His6-tagged p300 (AA 323-423); made in house; host or cells: E. coli (pETDuet vector)
Procedure, shortened: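 The co-expressed flag-HIF1α (786-826)/His6-p300 (323-423) complex, purified from E. coli with 0.1 mM ZnSO4, was used at 300 nM final with competitor peptides for 1 h at room temperature. Buffer was 150 mM NaCl, 20 mM HEPES pH 7.4, 7.5 mM CHAPS and 1 mM DTT. Anti-Flag-K (0.5 μM) and anti-His-D2 (4 nM) were then added for 2 h, and IC50s were fitted from the TR-FRET ratio.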

Row | Structure (SMILES) | 18 h Avg % max inhibition at top conc (HIF Rptr-24 hrs normoxia) (μM) [1] | EC50 [1] [µM] | Viability 1% FBS AVG (MTT V3-24 hr Normoxia) (μM) [2] | IC50 [3] [nM]
1 | CCCC[C@H](NC(=O)[C@H](CCC(=O)O)NC(=O)[C@]1(C)CCCC=CCCCCCC[C@@](C)(NC(=O)[C@H](CCC(=O)O)NC(=O)[C@H](CC(=O)O)NC(=O)[C@@H](NC(=O)[C@H](CC(N)=O)NC(=O)[C@@H](NC(=O)[C@H](CCC(N)=O)NC(=O)[C@]2(C)CCCC=CCCC[C@](C)(NC(=O)[C@H](CC(C)C)NC(=O)[C@H](CCC(=O)O)NC(=O)[C@H](CCC(=O)O)NC(C)=O)C(=O)N[C@@H](CCCNC(=N)N)C(=O)N[C@@H](C)C(=O)N[C@@H](CC(C)C)C(=O)N2)C(C)C)[C@@H](C)CC)C(=O)N[C@@H](C(C)C)C(=O)N[C@@H](CC(C)C)C(=O)N[C@@H](CCCC)C(=O)N[C@@H](CO)C(=O)N[C@@H](CC(C)C)C(=O)N[C@@H](C(C)C)C(=O)N1)C(N)=O [SP-366] (Ac-EEL[S5]RAL[S5]QVNIDE[R8]VL[Nle]SLV[S5]E[Nle]-NH2; staple 4-8, 15-22) | ++++ (≥50: ++++) | ≤ 5 | ++++ (≥30: ++++) | > 700
2 | CCCC[C@H](NC(=O)[C@H](Cc1ccccc1)NC(=O)[C@@H](NC(=O)[C@H](CCC(=O)O)NC(=O)[C@H](CCC(=O)O)NC(=O)[C@H](CC(=O)O)NC(=O)[C@@H](NC(=O)[C@H](Cc1ccccc1)NC(C)=O)[C@@H](C)CC)C(C)C)C(=O)N[C@@]1(C)CCCC=CCCC[C@@](C)(C(=O)N[C@@H](CCCC)C(=O)N[C@@H](C)C(=O)N[C@@H](CC(C)C)C(=O)N[C@@H](CC(=O)O)C(=O)N[C@@H](CCCNC(=N)N)C(=O)N[C@H](C(N)=O)[C@@H](C)CC)NC(=O)[C@H]([C@@H](C)CC)NC(=O)[C@H](C(C)C)NC(=O)[C@H](CC(C)C)NC1=O [SP-265] (Ac-FIDEEVF[Nle][S5]LVI[S5][Nle]ALDRI-NH2; staple 9-13) | ++++ (≥50: ++++) | 5 to 15 | ++++ (≥30: ++++) | 200 to 400
3 | CCCC[C@H](NC(=O)[C@H](CCC(=O)O)NC(=O)[C@]1(C)CCCC=CCCCCCC[C@@](C)(NC(=O)[C@H](CCC(=O)O)NC(=O)[C@H](CC(=O)O)NC(=O)[C@@H](NC(=O)[C@H](CC(N)=O)NC(=O)[C@@H](NC(=O)[C@H](CCC(N)=O)NC(=O)[C@H](CC(=O)O)NC(=O)[C@H](CC(C)C)NC(=O)[C@H](C)NC(=O)[C@]2(C)CCCC=CCCC[C@](C)(NC(=O)CNC(=O)[C@H](CCC(N)=O)NC(=O)[C@H](CC(C)C)NC(=O)[C@H](CC(C)C)NC(C)=O)C(=O)N[C@@H](CCC(=O)O)C(=O)N[C@@H](CC(C)C)C(=O)N[C@@H](CC(C)C)C(=O)N2)C(C)C)[C@@H](C)CC)C(=O)N[C@@H](C(C)C)C(=O)N[C@@H](CC(C)C)C(=O)N[C@@H](CCCC)C(=O)N[C@@H](CO)C(=O)N[C@@H](CC(C)C)C(=O)N[C@@H](C(C)C)C(=O)N1)C(=O)NCC(N)=O [SP-343] (Ac-LLQG[S5]ELL[S5]ALDQVNIDE[R8]VL[Nle]SLV[S5]E[Nle]G-NH2; staple 5-9, 19-26) | + (<10: +) | > 30 | ++++ (≥30: ++++) | 200 to 400
4 | CCCC[C@H](NC(=O)[C@H](Cc1ccccc1)NC(=O)[C@@H](NC(=O)[C@H](C)NC(=O)[C@H](CCC(=O)O)NC(=O)[C@H](CC(=O)O)NC(=O)[C@@H](NC(=O)[C@H](Cc1ccccc1)NC(C)=O)[C@@H](C)CC)C(C)C)C(=O)N[C@@]1(C)CCCC=CCCC[C@@](C)(C(=O)N[C@@H](CCCC)C(=O)N[C@@H](C)C(=O)N[C@@H](CC(C)C)C(=O)N[C@@H](CC(C)C)C(N)=O)NC(=O)[C@H]([C@@H](C)CC)NC(=O)[C@H](C(C)C)NC(=O)[C@H](CC(C)C)NC1=O [SP-249] (Ac-FIDEAVF[Nle][S5]LVI[S5][Nle]ALL-NH2; staple 9-13) | + (<10: +) | > 30 | ++++ (≥30: ++++) | > 700
5 | CCCC[C@H](NC(=O)[C@H](CCC(=O)O)NC(=O)[C@@H](NC(=O)[C@@H](NC(=O)[C@H](CC(C)C)NC(=O)[C@]1(C)CCCC=CCCC[C@](C)(NC(=O)[C@H](CCCNC(=N)N)NC(=O)[C@H](CC(=O)O)NC(=O)[C@@H](NC(=O)[C@H](Cc2ccccc2)NC(C)=O)[C@@H](C)CC)C(=O)N[C@@H](C(C)C)C(=O)N[C@@H](CC(C)C)C(=O)N[C@@H](CCCC)C(=O)N1)C(C)C)[C@@H](C)CC)C(=O)N[C@@H](C)C(=O)N[C@@H](CC(C)C)C(N)=O [SP-156] (Ac-FIDR[S5]VL[Nle][S5]LVIE[Nle]AL-NH2; staple 5-9) | ++ (≤10 but <25: ++) | > 30 | ++++ (≥30: ++++) | 200 to 400
6 | CC[C@H](C)[C@H](NC(=O)[C@H](CCCNC(=N)N)NC(=O)[C@H](CC(=O)O)NC(=O)[C@H](CC(C)C)NC(=O)[C@H](C)NC(=O)[C@H](CCSC)NC(=O)[C@]1(C)CCCC=CCCC[C@](C)(NC(=O)[C@H](CCSC)NC(=O)[C@H](CC(C)C)NC(=O)[C@@H](NC(=O)[C@H](CCCCN)NC(=O)[C@H](CCC(=O)O)NC(=O)[C@H](CC(=O)O)NC(=O)[C@@H](NC(=O)[C@H](Cc2ccccc2)NC(C)=O)[C@@H](C)CC)C(C)C)C(=O)N[C@@H](CC(C)C)C(=O)N[C@@H](C(C)C)C(=O)N[C@@H]([C@@H](C)CC)C(=O)N1)C(N)=O [SP-283] (Ac-FIDEKVLM[S5]LVI[S5]MALDRI-NH2; staple 9-13) | +++ (≤25 but <50: +++) | > 30 | ++++ (≥30: ++++) | > 700
7 | CCCC[C@@H]1NC(=O)[C@H](CC(C)C)NC(=O)[C@H](C(C)C)NC(=O)[C@@](C)(NC(=O)[C@H](CCC(=O)O)NC(=O)[C@H](CC(=O)O)NC(=O)[C@@H](NC(=O)[C@H](Cc2ccccc2)NC(C)=O)[C@@H](C)CC)CCCC=CCCC[C@@](C)(C(=O)N[C@@H](CC(C)C)C(=O)N[C@H](C(=O)N[C@H](C(=O)N[C@@H](CCC(=O)O)C(=O)N[C@@H](CO)C(=O)N[C@@H](C)C(=O)N[C@@H](CC(C)C)C(N)=O)[C@@H](C)CC)C(C)C)NC1=O [SP-147] (Ac-FIDE[S5]VL[Nle][S5]LVIESAL-NH2; staple 5-9) | +++ (≤25 but <50: +++) | 15 to 30 | ++++ (≥30: ++++) | > 700
8 | CCCC[C@H](NC(=O)[C@H](CCC(=O)O)NC(=O)[C@]1(C)CCCC=CCCCCCC[C@@](C)(NC(=O)[C@H](CCC(=O)O)NC(=O)[C@H](CC(=O)O)NC(=O)[C@@H](NC(=O)[C@H](CC(N)=O)NC(=O)[C@@H](NC(=O)[C@H](CCC(N)=O)NC(=O)[C@H](CC(=O)O)NC(=O)[C@]2(C)CCCC=CCCC[C@](C)(NC(=O)[C@H](CCC(=O)O)NC(=O)[C@H](CCC(=O)O)NC(=O)CNC(=O)[C@H](CCC(N)=O)NC(=O)[C@H](CC(C)C)NC(=O)[C@H](CC(C)C)NC(C)=O)C(=O)N[C@@H](CC(C)C)C(=O)N[C@@H](CCCNC(=N)N)C(=O)N[C@@H](C)C(=O)N2)C(C)C)[C@@H](C)CC)C(=O)N[C@@H](C(C)C)C(=O)N[C@@H](CC(C)C)C(=O)N[C@@H](CCCC)C(=O)N[C@@H](CO)C(=O)N[C@@H](CC(C)C)C(=O)N[C@@H](C(C)C)C(=O)N1)C(=O)NCC(N)=O [SP-344] (Ac-LLQGEE[S5]LRA[S5]DQVNIDE[R8]VL[Nle]SLV[S5]E[Nle]G-NH2; staple 7-11, 19-26) | + (<10: +) | > 30 | ++++ (≥30: ++++) | 400 to 700
9 | CCCC[C@H](NC(=O)[C@H](CCC(=O)O)NC(=O)[C@@H](NC(=O)[C@@H](NC(=O)[C@H](CC(C)C)NC(=O)[C@]1(C)CCCC=CCCC[C@](C)(NC(=O)[C@H](C)NC(=O)[C@H](CC(=O)O)NC(=O)[C@@H](NC(=O)[C@H](Cc2ccccc2)NC(C)=O)[C@@H](C)CC)C(=O)N[C@@H]([C@@H](C)O)C(=O)N[C@@H](CC(C)C)C(=O)N[C@@H](CCCC)C(=O)N1)C(C)C)[C@@H](C)CC)C(=O)N[C@@H](C)C(=O)N[C@@H](CC(C)C)C(N)=O [SP-149] (Ac-FIDA[S5]TL[Nle][S5]LVIE[Nle]AL-NH2; staple 5-9) | ++++ (≥50: ++++) | 5 to 15 | + (<5: +) | 400 to 700
